# Results: patent publication US6559101B2, “N- (5, 7-dimethoxy [1, 2, 4] triazolo [1, 5-a] pyrimidin-2-yl) arylsulfonamide compounds and their use as herbicides” (Dow AgroSciences LLC, priority 2000, dated 2003)
# How the values were obtained:
# Assay type in all cases: in vivo
# [1] = tested on: morningglory (Ipomoea hederacea); assay: Preemergence herbicidal activity; details: scored after 3 weeks, 0 no injury, 100 complete kill or no germination
# Method in brief: (§1)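 Application was to bare soil of seeded pots at rates no higher than 4.48 kg/ha. Three weeks on, plant condition was compared visually with untreated pots and expressed as percent injury.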
# [2] = tested on: wild oats (Avena fatua); assay: Preemergence herbicidal activity; details: scored after 3 weeks, 0 no injury, 100 complete kill or no germination
# Method in brief: as §1
# [3] = tested on: blackgrass (Alopecurus myosuroides); assay: Preemergence herbicidal activity; details: scored after 3 weeks, 0 no injury, 100 complete kill or no germination
# Method in brief: as §1
# [4] = tested on: lambsquarters (Chenopodium album); assay: Preemergence herbicidal activity; details: scored after 3 weeks, 0 no injury, 100 complete kill or no germination
# Method in brief: as §1
# [5] = tested on: giant foxtail (Setaria faberi); assay: Preemergence herbicidal activity; details: scored after 3 weeks, 0 no injury, 100 complete kill or no germination
# Method in brief: as §1
# [6] = tested on: crabgrass (Digitaria sanguinalis); assay: Preemergence herbicidal activity; details: scored after 3 weeks, 0 no injury, 100 complete kill or no germination
# Method in brief: as §1
# [7] = tested on: pigweed (Amaranthus retroflexus); assay: Preemergence herbicidal activity; details: scored after 3 weeks, 0 no injury, 100 complete kill or no germination
# Method in brief: as §1
# [8] = tested on: wild poinsettia (Euphorbia heterophylla); assay: Preemergence herbicidal activity; details: scored after 3 weeks, 0 no injury, 100 complete kill or no germination
# Method in brief: as §1
# [9] = tested on: cocklebur (Xanthium strumarium); assay: Preemergence herbicidal activity; details: scored after 3 weeks, 0 no injury, 100 complete kill or no germination
# Method in brief: as §1
# [10] = tested on: barnyardgrass (Echinochloa crus-galli); assay: Preemergence herbicidal activity; details: scored after 3 weeks, 0 no injury, 100 complete kill or no germination
# Method in brief: as §1
# [11] = tested on: Rox orange sorghum (Sorghum bicolor); assay: Preemergence herbicidal activity; details: scored after 3 weeks, 0 no injury, 100 complete kill or no germination
# Method in brief: as §1
# [12] = tested on: velvetleaf (Abutilion theophrasti); assay: Preemergence herbicidal activity; details: scored after 3 weeks, 0 no injury, 100 complete kill or no germination
# Method in brief: as §1
# [13] = tested on: wild buckwheat (Polygonum convolvulus); assay: Postemergence herbicidal activity; details: scored after 2 weeks, 0 no injury, 100 complete kill
# Method in brief: (§2)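 Percent injury, rated visually two weeks after application against untreated plants, reflects a thorough-coverage spray given at the first to second true leaf stage. Application rates in ppm approximate g/ha (1 ppm ≈ 1 g/ha).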
# [14] = tested on: morningglory (Ipomoea hederacea); assay: Postemergence herbicidal activity; details: scored after 2 weeks, 0 no injury, 100 complete kill
# Method in brief: as §2
# [15] = tested on: wild oats (Avena fatua); assay: Postemergence herbicidal activity; details: scored after 2 weeks, 0 no injury, 100 complete kill
# Method in brief: as §2
# [16] = tested on: blackgrass (Alopecurus myosuroides); assay: Postemergence herbicidal activity; details: scored after 2 weeks, 0 no injury, 100 complete kill
# Method in brief: as §2
# [17] = tested on: lambsquarters (Chenopodium album); assay: Postemergence herbicidal activity; details: scored after 2 weeks, 0 no injury, 100 complete kill
# Method in brief: as §2
# [18] = tested on: giant foxtail (Setaria faberi); assay: Postemergence herbicidal activity; details: scored after 2 weeks, 0 no injury, 100 complete kill
# Method in brief: as §2
# [19] = tested on: pigweed (Amaranthus retroflexus); assay: Postemergence herbicidal activity; details: scored after 2 weeks, 0 no injury, 100 complete kill
# Method in brief: as §2
# [20] = tested on: chickweed (Stellaria media); assay: Postemergence herbicidal activity; details: scored after 2 weeks, 0 no injury, 100 complete kill
# Method in brief: as §2
# [21] = tested on: cocklebur (Xanthium strumarium); assay: Postemergence herbicidal activity; details: scored after 2 weeks, 0 no injury, 100 complete kill
# Method in brief: as §2
# [22] = tested on: Rox orange sorghum (Sorghum bicolor); assay: Postemergence herbicidal activity; details: scored after 2 weeks, 0 no injury, 100 complete kill
# Method in brief: as §2
# [23] = tested on: velvetleaf (Abutilion theophrasti); assay: Postemergence herbicidal activity; details: scored after 2 weeks, 0 no injury, 100 complete kill
# Method in brief: as §2
# [24] = tested on: viola (Viola tricolor); assay: Postemergence herbicidal activity; details: scored after 2 weeks, 0 no injury, 100 complete kill
# Method in brief: as §2
smiles,measurement,setting,value
"CCOc1cccc(C(F)(F)F)c1S(=O)(=O)Nc1nc2nc(OC)cc(OC)n2n1 [Compound 14, N-(5,7-dimethoxy[1,2,4]triazolo[1,5-a]-pyrimidin-2-yl)-2-ethoxy-6-(trifluoromethyl)benzenesulfonamide]",Preemergence herbicidal activity IPOHE,[1]; 17.5 g/Ha,75%
same,Preemergence herbicidal activity AVEFA,[2]; 17.5 g/Ha,60%
same,Preemergence herbicidal activity ALOMY,[3]; 17.5 g/Ha,80%
same,Preemergence herbicidal activity CHEAL,[4]; 17.5 g/Ha,95%
same,Preemergence herbicidal activity SETFA,[5]; 17.5 g/Ha,85%
same,Preemergence herbicidal activity DIGSA,[6]; 17.5 g/Ha,80%
same,Preemergence herbicidal activity AMARE,[7]; 17.5 g/Ha,95%
same,Preemergence herbicidal activity EPHHL,[8]; 17.5 g/Ha,85%
same,Preemergence herbicidal activity XANST,[9]; 17.5 g/Ha,70%
same,Preemergence herbicidal activity ECHCG,[10]; 17.5 g/Ha,80%
same,Preemergence herbicidal activity SORBI,[11]; 17.5 g/Ha,85%
same,Preemergence herbicidal activity ABUTH,[12]; 17.5 g/Ha,85%
same,Postemergence herbicidal activity POLCO,[13]; 7.8 ppm,90%
same,Postemergence herbicidal activity IPOHE,[14]; 7.8 ppm,80%
same,Postemergence herbicidal activity AVEFA,[15]; 7.8 ppm,50%
same,Postemergence herbicidal activity ALOMY,[16]; 7.8 ppm,70%
same,Postemergence herbicidal activity CHEAL,[17]; 7.8 ppm,100%
same,Postemergence herbicidal activity SETFA,[18]; 7.8 ppm,90%
same,Postemergence herbicidal activity AMARE,[19]; 7.8 ppm,100%
same,Postemergence herbicidal activity STEME,[20]; 7.8 ppm,98%
same,Postemergence herbicidal activity XANST,[21]; 7.8 ppm,100%
same,Postemergence herbicidal activity SORBI,[22]; 7.8 ppm,70%
same,Postemergence herbicidal activity ABUTH,[23]; 7.8 ppm,90%
same,Postemergence herbicidal activity VIOTR,[24]; 7.8 ppm,90%
COc1cc(OC)n2nc(NS(=O)(=O)c3cc(Cl)ccc3OCCF)nc2n1 [Compound 13],Preemergence herbicidal activity IPOHE,[1]; 35 g/Ha,50%
same,Preemergence herbicidal activity AVEFA,[2]; 35 g/Ha,85%
same,Preemergence herbicidal activity ALOMY,[3]; 35 g/Ha,95%
same,Preemergence herbicidal activity CHEAL,[4]; 35 g/Ha,95%
same,Preemergence herbicidal activity SETFA,[5]; 35 g/Ha,95%
same,Preemergence herbicidal activity DIGSA,[6]; 35 g/Ha,100%
same,Preemergence herbicidal activity AMARE,[7]; 35 g/Ha,95%
same,Preemergence herbicidal activity EPHHL,[8]; 35 g/Ha,50%
same,Preemergence herbicidal activity XANST,[9]; 35 g/Ha,50%
same,Preemergence herbicidal activity ECHCG,[10]; 35 g/Ha,80%
same,Preemergence herbicidal activity SORBI,[11]; 35 g/Ha,95%
same,Preemergence herbicidal activity ABUTH,[12]; 35 g/Ha,60%
same,Postemergence herbicidal activity POLCO,[13]; 31.3 ppm,80%
same,Postemergence herbicidal activity IPOHE,[14]; 31.3 ppm,70%
same,Postemergence herbicidal activity AVEFA,[15]; 31.3 ppm,75%
same,Postemergence herbicidal activity ALOMY,[16]; 31.3 ppm,85%
same,Postemergence herbicidal activity CHEAL,[17]; 31.3 ppm,70%
same,Postemergence herbicidal activity SETFA,[18]; 31.3 ppm,90%
same,Postemergence herbicidal activity AMARE,[19]; 31.3 ppm,95%
same,Postemergence herbicidal activity STEME,[20]; 31.3 ppm,85%
same,Postemergence herbicidal activity XANST,[21]; 31.3 ppm,90%
same,Postemergence herbicidal activity SORBI,[22]; 31.3 ppm,90%
same,Postemergence herbicidal activity ABUTH,[23]; 31.3 ppm,70%
same,Postemergence herbicidal activity VIOTR,[24]; 31.3 ppm,80%
COc1cc(OC)n2nc(NS(=O)(=O)c3c(C(F)(F)F)ccnc3F)nc2n1 [Compound 16],Preemergence herbicidal activity IPOHE,[1]; 140 g/Ha,0%
same,Preemergence herbicidal activity AVEFA,[2]; 140 g/Ha,30%
same,Preemergence herbicidal activity ALOMY,[3]; 140 g/Ha,40%
same,Preemergence herbicidal activity CHEAL,[4]; 140 g/Ha,20%
same,Preemergence herbicidal activity SETFA,[5]; 140 g/Ha,10%
same,Preemergence herbicidal activity DIGSA,[6]; 140 g/Ha,0%
same,Preemergence herbicidal activity AMARE,[7]; 140 g/Ha,85%
same,Preemergence herbicidal activity EPHHL,[8]; 140 g/Ha,0%
same,Preemergence herbicidal activity XANST,[9]; 140 g/Ha,40%
same,Preemergence herbicidal activity ECHCG,[10]; 140 g/Ha,0%
same,Preemergence herbicidal activity SORBI,[11]; 140 g/Ha,40%
same,Preemergence herbicidal activity ABUTH,[12]; 140 g/Ha,20%
same,Postemergence herbicidal activity POLCO,[13]; 125 ppm,20%
same,Postemergence herbicidal activity IPOHE,[14]; 125 ppm,20%
same,Postemergence herbicidal activity AVEFA,[15]; 125 ppm,50%
same,Postemergence herbicidal activity ALOMY,[16]; 125 ppm,60%
same,Postemergence herbicidal activity CHEAL,[17]; 125 ppm,40%
same,Postemergence herbicidal activity SETFA,[18]; 125 ppm,75%
same,Postemergence herbicidal activity AMARE,[19]; 125 ppm,75%
same,Postemergence herbicidal activity STEME,[20]; 125 ppm,60%
same,Postemergence herbicidal activity XANST,[21]; 125 ppm,0%
same,Postemergence herbicidal activity SORBI,[22]; 125 ppm,50%
same,Postemergence herbicidal activity ABUTH,[23]; 125 ppm,10%
same,Postemergence herbicidal activity VIOTR,[24]; 125 ppm,50%
